Where two headings read alike, the source gives them in different places.
Experiments:
[1] = target: human recombinant transporter protein norepinephrine (NET) (Homo sapiens (Human), UniProt P23975); test: radioligand binding assay, norepinephrine transporter
Method: (§1) The monoamine transporters inhibitory activities of selected compounds cycloalkylmethylamine derivatives comprising Formula (I) are reported herein. The compounds were evaluated using well established radioligand binding assays protocols (Galli, A. et al., J. Exp. Biol. 1995, 198, 2197-2212; Giros, B. et al., Trends Pharmcol. Sci. 1993, 14, 43-49; Gu, H. et al., J. Biol. Chem. 1994, 269(10), 7124-7130; Shearman, L. P. et al, Am. J. Physiol., 1998, 275(6 Pt 1), C1621-1629; Wolf, W. A. et al., J. Biol. Chem. 1992, 267(29), 20820-20825). The human recombinant transporter proteins dopamine (DAT), norepinephrine (NET) and serotonin (SERT) were selected for the in vitro assays. The radioligand binding assays were carried out at 11 different test concentrations […] to 1 μM.
(§2) The assays were carried out in duplicates and the quantitative data are reported as Ki in the TABLE 1.

[2] = target: human recombinant transporter protein dopamine (DAT) (Homo sapiens (Human), UniProt Q01959); test: radioligand binding assay, dopamine transporter
Sequence of human recombinant transporter protein dopamine (DAT) (Q01959 whole entry): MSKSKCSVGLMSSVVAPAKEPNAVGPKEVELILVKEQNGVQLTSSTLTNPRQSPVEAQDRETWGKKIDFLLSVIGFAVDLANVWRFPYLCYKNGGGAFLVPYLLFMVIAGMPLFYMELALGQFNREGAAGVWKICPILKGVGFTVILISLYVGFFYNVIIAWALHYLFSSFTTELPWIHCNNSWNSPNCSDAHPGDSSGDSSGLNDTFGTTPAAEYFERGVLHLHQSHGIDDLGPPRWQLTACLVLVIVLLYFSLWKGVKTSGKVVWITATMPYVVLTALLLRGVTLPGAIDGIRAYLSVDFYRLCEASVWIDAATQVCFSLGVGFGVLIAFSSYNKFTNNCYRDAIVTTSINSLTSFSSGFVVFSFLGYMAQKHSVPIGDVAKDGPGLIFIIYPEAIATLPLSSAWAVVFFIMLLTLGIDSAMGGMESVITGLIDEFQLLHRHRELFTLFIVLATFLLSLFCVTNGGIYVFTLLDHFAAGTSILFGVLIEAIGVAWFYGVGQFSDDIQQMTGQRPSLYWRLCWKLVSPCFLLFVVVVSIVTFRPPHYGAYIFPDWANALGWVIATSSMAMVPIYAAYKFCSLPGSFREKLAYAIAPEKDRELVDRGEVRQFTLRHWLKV
Method: as §1, §2

[3] = target: human recombinant transporter protein serotonin (SERT) (Homo sapiens (Human), UniProt P31645); test: radioligand binding assay, serotonin transporter
Method: as §1, §2

[4] = active metabolites of sibutramine; background statement; cited from earlier work
[5] = human recombinant NET, 11 test concentrations 0.1 nm to 1 μM, duplicates, read-out: NET Ki
[6] = human recombinant DAT, 11 test concentrations 0.1 nm to 1 μM, duplicates, read-out: DAT Ki
[7] = human recombinant SERT, 11 test concentrations 0.1 nm to 1 μM, duplicates, read-out: SERT Ki

Sequence of human recombinant transporter protein norepinephrine (NET) (P23975 whole entry): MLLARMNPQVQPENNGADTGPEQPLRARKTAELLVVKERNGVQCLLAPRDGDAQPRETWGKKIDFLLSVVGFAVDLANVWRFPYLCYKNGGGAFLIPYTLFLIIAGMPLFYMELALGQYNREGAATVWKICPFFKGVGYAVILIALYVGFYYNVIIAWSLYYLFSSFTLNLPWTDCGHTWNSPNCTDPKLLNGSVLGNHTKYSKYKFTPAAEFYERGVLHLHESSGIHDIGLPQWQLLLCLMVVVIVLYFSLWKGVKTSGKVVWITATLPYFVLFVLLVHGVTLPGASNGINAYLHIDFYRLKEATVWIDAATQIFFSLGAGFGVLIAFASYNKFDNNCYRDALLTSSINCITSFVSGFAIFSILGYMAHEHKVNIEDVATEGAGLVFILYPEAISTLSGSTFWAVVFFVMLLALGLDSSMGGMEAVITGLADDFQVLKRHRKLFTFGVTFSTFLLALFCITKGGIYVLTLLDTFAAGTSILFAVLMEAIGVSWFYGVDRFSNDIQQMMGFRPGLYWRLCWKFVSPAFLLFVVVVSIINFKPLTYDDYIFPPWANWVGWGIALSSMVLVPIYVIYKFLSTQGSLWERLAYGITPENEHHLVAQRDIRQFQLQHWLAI

| Compound | Ki [1, 5] | Ki [2, 6] | Ki [3, 7] | Ki [1] | Ki [2] | elimination half-life [4] | Ki [3] |
| --- | --- | --- | --- | --- | --- | --- | --- |
| CCOc1ccc(C2(C(CC(C)C)NCCOC(=O)CC)CCC2)cc1 (centres unmarked) [Compound 12u, 2-((1-(1-(4-Ethoxyphenyl)cyclobutyl)-3-methylbutyl)amino)ethyl propionate] | 2340 nM | 80.4 nM | 5.7 nM |  |  |  |  |
| CCOC(=O)NCCNC(CC(C)C)C1(c2ccc(Cl)c(Cl)c2)CCC1 (centres unmarked) [Compound 21a, Ethyl (2-((1-(1-(3,4-dichlorophenyl)cyclobutyl)-3-methylbutyl)amino)ethyl)carbamate] |  |  | 1 nM | 13.4 nM | 38.4 nM |  |  |
| CNC(CC(C)C)C1(c2ccc(Cl)cc2)CCC1 (centres unmarked) [Compound M1] |  |  |  |  |  | 14 h |  |
| CCOc1ccc(C2(CC(C)CCNCCCC(N)=O)CCC2)cc1 (racemic) [33b -Racemic] | > 10000 nM | 472 nM | 5.49 nM |  |  |  |  |
| CC(C)CC(N)C1(c2ccc(Cl)cc2)CCC1 (centres unmarked) [Compound M2] |  |  |  |  |  | 16 h |  |
| CC(CCNCCCC(N)=O)CC1(c2ccc(Cl)c(Cl)c2)CCC1 (racemic) [33a -Racemic] | 50.1 nM | 1.5 nM | 8.1 nM |  |  |  |  |
| 2-((1-(1-(3,4-Dichlorophenyl)cyclobutyl)-3-methylbutyl)amino)ethyl propionate [Compound 12q] | 38.2 nM | 7.2 nM | 10.6 nM |  |  |  |  |
| CCOC(=O)NCCNC(CC(C)C)C1(c2ccc(OCC)cc2)CCC1 (centres unmarked) [Compound 21b, Ethyl (2-((1-(1-(4-ethoxyphenyl)cyclobutyl)-3-methylbutyl)amino)ethyl)carbamate] |  |  |  | 1920 nM | 159 nM |  | 2 nM |
| C[C@@H](CCNCCCC(N)=O)CC1(c2ccc(Cl)c(Cl)c2)CCC1 (single isomer, unassigned) [33a -(R)-Isomer] | 30.3 nM | 0.91 nM | 2.3 nM |  |  |  |  |
| CCCC(=O)NCCNC(CC(C)C)C1(c2ccc(Cl)c(Cl)c2)CCC1 (centres unmarked) [Compound 31a, N-(2-((1-(1-(3,4-Dichlorophenyl)cyclobutyl)-3-methylbutyl)amino)ethyl)butyramide] |  |  | 27.8 nM | 77.7 nM | 52.7 nM |  |  |
| CCOc1ccc(C2(C[C@H](C)CCNCCCC(N)=O)CCC2)cc1 (single isomer, unassigned) [33b -(S)-Isomer] | 1090 nM | 4030 nM | 329 nM |  |  |  |  |
| CCCC(=O)NCCNC(CC(C)C)C1(c2ccc(OCC)cc2)CCC1 (centres unmarked) [Compound 31b, N-(2-((1-(1-(4-Ethoxyphenyl)cyclobutyl)-3-methylbutyl)amino)ethyl)butyramide] |  | 251 nM |  | 4730 nM |  |  | 25 nM |
| CCOc1ccc(C2(C[C@@H](C)CCNCCCC(N)=O)CCC2)cc1 (single isomer, unassigned) [33b -(R)-Isomer] | 6520 nM | 130 nM | 2.79 nM |  |  |  |  |

From patent US9096515B2, “Methods of using cycloalkylmethylamine derivatives” (Reviva Pharmaceuticals, Inc., priority 2010, dated 2015)
